Results from patent US20250177340A1, “Tartaric Acid Analogs and Uses Thereof” (Lapix Therapeutics, Inc., priority 2021, published 2025).

Experiments:
PD-1 and TIM3 = PD-1 and TIM3 expression on PS-treated human CD8+ T-cells (flow cytometry); format: cell-based
Source text: (§1) 30:70 PS:DMPC liposomes were synthesized in PBS.

murine CD8+ T cells = experiment: Murine CD8+ T-cell proliferation (CFSE), Example 6; format: cell-based, C57BL/6 mice
Protocol: Preparation of test materials: TTA, compound A and compound B were formulated in RPMI media under aseptic conditions. The pH was adjusted to approximately 7.5 before dosing cells.
Tissue culture and dosing: Splenocytes of C57BL/6 mice were stained with CFSE and prepared, cultured, and dosed. Cells were seeded at 1×10^5 cells/well in a 96-well round-bottomed plate.
Controls: Two controls were used. A negative control dosed with 10 ng/ml IL2 was used, and a positive control dosed with 20 μg/ml ConA and 10 ng/ml IL2 was used.
Treatment: After ConA stimulation (10 μg/ml), cells were dosed with 30 mM compound A, B or C with or without 0.1 mM 30:70 PS:DMPC liposomes. All wells were dosed with 10 ng/ml of IL-2.

human CD8+ T cells [1] = experiment: Survival of PS-treated human CD8+ T-cells (viability dye, microscopy)
Protocol: (§12) CD8+ T-cells were stained with CFSE (ThermoFisher Catalog No. 50-169-50), and prepared, cultured, and dosed as described herein. Briefly, cells were seeded at 4×10^5 cells/well. IL-2 (10 ng/ml) was used as a negative control, and ConA (20 μg/ml) in conjunction with IL-2 (10 ng/ml) was used as a positive control. After ConA stimulation (10 μg/ml) in the presence of 10 ng/ml IL-2, cells were dosed in duplicate with PS:DMPC liposomes to give a total of 100, 10, 1, or 0.1 mM of PS. […] Flow cytometer analysis was performed to assess cell survival by viability dye and proliferation by CFSE (gated on survived CD8+ T-cells).
(§13) Cells were observed via a microscope at the end of the incubation period.

TNF-α = TNF-α ELISA in RAW 264.7 cells; format: cell-based, mouse; conditions: 0.0001-100 mM, human FVIII antigen
Protocol: (§2) RAW 264.7 cells were prepared, cultured, and dosed as described herein. The RAW 264.7 cell line is an immortalized mouse monocyte macrophage that is very close to primary cells, easy to maintain with minimum manipulation, and known to express TIM4. […] OPLS and TTA were dosed at 100, 70, 50, 30, 10, 3, 1, 0.3, 0.1, 0.03, 0.01, 0.003, 0.001, 0.0003 and 0.0001 mM. Finally, 100 μl of 40 μg/ml of human FVIII as a sample antigen was added to each well. LPS and free protein were used as positive and baseline controls, respectively. OPLS and TTA were formulated in RPMI media in aseptic conditions. The pH was adjusted to approximately 7.5 before dosing cells. TNF-α and TGF-β ELISAs were conducted as per the manufacturer's instructions (TNF-α ELISA kit: R&D systems DY410; TGF-β ELISA kit: R&D systems DY1679).

TGF-β = TGF-β ELISA in RAW 264.7 cells; format: cell-based, mouse; conditions: 0.0001-100 mM, human FVIII antigen
Protocol: as §2

human CD8+ T cells [2] = experiment: Proliferation of PS-treated human CD8+ T-cells (CFSE); format: cell-based; conditions: 70 mM L-(+)-tartaric acid with 0.1 mM PS
Source text: as §1

human CD8+ T cells [3] = tested on: human CD8+ T cells
Protocol: as §12, §13

Granzyme B and IFN-γ = experiment: GzmB+/IFN-γ+ double-positive murine CD8+ T-cells, Example 7; format: cell-based, C57BL/6 mice; conditions: controls: high dose ConA; 0.1 mM PS liposomes
Source text: (§3) In this study, the effects of increasing doses of compound B and compound C on proliferation (CFSE staining), activation (Granzyme B and IFN-γ), and checkpoint modulation (PD1 and TIM3) of murine CD8+ T-cells in the presence and absence of phosphatidylserine (PS) were explored.
(§4) Preparation of test materials: 30:70 PS:DMPC liposomes were synthesized in PBS. […] Compound C was first dissolved in a small volume of DMSO before diluting to the final desired concentration.
(§5) Tissue culture and dosing: Splenocytes of C57BL/6 mice were stained with CFSE and prepared, cultured, and dosed. Cells were seeded at 4×10^5 cells/well.
(§6) Controls: Two controls were used. A negative control dosed with 10 ng/ml IL-2 was used, and a positive control dosed with 20 μg/ml ConA and 10 ng/ml IL-2 was used.
(§7) Treatment: After ConA stimulation (10 μg/ml), cells were dosed with log 3 dilution of compound B or compound C to cover a range from 1×10^−3 to 30 mM in duplicates with or without 0.1 mM PS:DMPC liposomes. All wells were dosed with 10 ng/ml of IL-2.
(§8) Flow cytometer: Flow cytometer analysis was performed to assess cell proliferation by CFSE, activation by double staining for Granzyme B (GzmB) and IFN-γ, checkpoint modulation by double staining for PD-1 and TIM3.
(§9) Exposure-response analysis: Change from baseline was calculated for each marker as follows:
(§10) Concentration versus change was fitted to an appropriate three-, four- or five-parameter log-logistic model using “dre” package in “R.”
(§11) The fold change from baseline GzmB+/IFN-γ+ double-positive CD8+ T-cells as a function of increasing doses of compound B was calculated using equation 1, where Responsecontrol was GzmB+/IFN-γ+ double-positive CD8+ T-cells in cells treated with IL-2 alone and Responsetreatment was GzmB+/IFN-γ+ double-positive CD8+ T-cells at each dose of compound B. The baseline PS response was calculated using the same equation with Responsetreatment as the GzmB+/IFN-γ+ double-positive CD8+ T-cells treated with 0.1 mM PS.

TIM3 and PD-1 = experiment: TIM3+/PD-1+ double-positive murine CD8+ T-cells, Example 7; format: cell-based, C57BL/6 mice; conditions: controls: high dose ConA; 0.1 mM PS liposomes
Source text: as §3, §4, §5, §6, §7, §8, §9, §10
as §11, with “baseline of TIM3+/PD-1+” for “baseline GzmB+/IFN-γ+”, “was TIM3+/PD-1+” for “was GzmB+/IFN-γ+”, “the TIM3+/PD-1+” for “the GzmB+/IFN-γ+”

murine CD8+ T-cells = experiment: Murine CD8+ T-cell proliferation concentration-response (CFSE), Example 7; format: cell-based, C57BL/6 mice
Source text: as §3, §4, §5, §6, §7, §8, §9, §10
The fold change from baseline of CD8+ T-cells proliferation as a function of increasing doses of compound B was calculated using equation 1, where ResponseControl was the proliferation of cells treated with IL-2 alone and Responsetreatment was the proliferation at each dose of compound B. The baseline PS response was calculated using the same equation where Responsetreatment was the proliferation of cells treated with 0.1 mM PS.

[4] = 70 mM L-(+)-tartaric acid with 0.1 mM PS

In the case of `O=C(O)[C@H](O)[C@@H](O)C(=O)O` [L-(+)-tartaric acid], the PD-1 expression (PD-1 and TIM3; [4]) is reported as 23%, the TIM3 expression (PD-1 and TIM3; [4]) is reported as 0.527% and the “decrease of TIM3 expression compared to PS only group” value (PD-1 and TIM3; [4]) is reported as “about 66%”. For the same molecule, the “frequency of cells co-expressing PD-1 and TIM3” value (PD-1 and TIM3; [4]) was 0.198%, the “reduction of PD-1 expression compared to PS only-treated group” value (PD-1 and TIM3; [4]) was “about 35%” and the “reduction of cells co-expressing PD-1 and TIM3 compared to PS only” value (PD-1 and TIM3; [4]) was 91.4%. For the same molecule, the “percent of CD8+ T-cell proliferation” value (murine CD8+ T cells; 30 mM, in absence of PS, ConA 10 μg/ml) was 41.74%, the “increase in viable CD8+ T cells compared to PS-treated cells alone” value (human CD8+ T cells [1]; [4]) was 65% and the TNF-α production (TNF-α) was “stimulate TNF-α production”. The TGF-β production (TGF-β) was “without stimulating TGF-β production” and the “effect on PS-suppressed CD8+ T-cell proliferation/accumulation (CFSE)” value (human CD8+ T cells [2]) was “partially reversed the effect of PS”.
In the case of “phosphatidylserine [PS, reference compound]”, the PD-1 expression (PD-1 and TIM3; 0.1 mM PS only) is reported as 35%, the TIM3 expression (PD-1 and TIM3; 0.1 mM PS only) is reported as 1.53% and the “frequency of cells co-expressing PD-1 and TIM3” value (PD-1 and TIM3; 0.1 mM PS only) is reported as 2.31%. The “percent of CD8+ T-cell proliferation” value (murine CD8+ T cells; controls: ConA 20 μg/ml + IL2, 0.1 mM PS) was 4.84%, the “microscopic observation of cells” value (human CD8+ T cells [3]) was “did not look healthy” and the “CD8+ T-cell survival” value (human CD8+ T cells [1]; controls: ConA 20 μg/ml + IL-2, 0.1 mM PS after ConA stimulation) was 25.9%. For the same molecule, the “GzmB+/IFN-γ+ double-positive CD8+ T-cells relative to negative control” value (Granzyme B and IFN-γ) was “one half”, the “fold increase in TIM3+/PD-1+ double-positive CD8+ T-cells vs negative control” value (TIM3 and PD-1) was 1.27 fold and the “fold increase in CD8+ T-cell proliferation compared to control cells” value (murine CD8+ T-cells; 0.1 mM PS) was 28 fold. For the same molecule, the “percent proliferation of CD8+ T-cells” value (murine CD8+ T-cells; controls: high dose ConA 20 μg/ml, 0.1 mM PS liposomes) was 4.24%.
